In ChEMBL document CHEMBL1201862, “PubChem BioAssay data set” (2004):
Activity calls are given as the source filed them. Unless noted, no cut-off for these calls is given here.

Assays:
Format in all cases: functional
[1] = target: Kappa-type opioid receptor (Homo sapiens, UniProt P41145); assay: SAR analysis of small molecule agonists of the kappa opioid receptor via a luminescent beta-arrestin assay - Set 3. [Related pubchem assays (depositor defined):AID1777, AID1785, AID1786, AID1966, AID2133, AID2136, AID2284, AID2500]
Sequence of Kappa-type opioid receptor (P41145 whole entry): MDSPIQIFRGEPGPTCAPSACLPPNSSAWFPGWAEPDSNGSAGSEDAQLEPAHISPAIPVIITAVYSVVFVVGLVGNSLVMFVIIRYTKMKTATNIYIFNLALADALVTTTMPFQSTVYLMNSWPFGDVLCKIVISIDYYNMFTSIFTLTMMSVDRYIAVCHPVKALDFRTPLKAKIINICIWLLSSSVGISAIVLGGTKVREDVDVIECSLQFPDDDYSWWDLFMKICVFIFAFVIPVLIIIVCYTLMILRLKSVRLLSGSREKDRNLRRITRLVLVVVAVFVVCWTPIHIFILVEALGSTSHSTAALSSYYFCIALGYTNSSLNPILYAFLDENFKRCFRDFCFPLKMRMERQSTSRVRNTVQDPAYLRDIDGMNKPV

[2] = target: Intestinal-type alkaline phosphatase (Mus musculus, UniProt P24822); assay: PubChem AID 488785
Sequence of Intestinal-type alkaline phosphatase (Mus musculus, UniProt P24822) (P24822 whole entry): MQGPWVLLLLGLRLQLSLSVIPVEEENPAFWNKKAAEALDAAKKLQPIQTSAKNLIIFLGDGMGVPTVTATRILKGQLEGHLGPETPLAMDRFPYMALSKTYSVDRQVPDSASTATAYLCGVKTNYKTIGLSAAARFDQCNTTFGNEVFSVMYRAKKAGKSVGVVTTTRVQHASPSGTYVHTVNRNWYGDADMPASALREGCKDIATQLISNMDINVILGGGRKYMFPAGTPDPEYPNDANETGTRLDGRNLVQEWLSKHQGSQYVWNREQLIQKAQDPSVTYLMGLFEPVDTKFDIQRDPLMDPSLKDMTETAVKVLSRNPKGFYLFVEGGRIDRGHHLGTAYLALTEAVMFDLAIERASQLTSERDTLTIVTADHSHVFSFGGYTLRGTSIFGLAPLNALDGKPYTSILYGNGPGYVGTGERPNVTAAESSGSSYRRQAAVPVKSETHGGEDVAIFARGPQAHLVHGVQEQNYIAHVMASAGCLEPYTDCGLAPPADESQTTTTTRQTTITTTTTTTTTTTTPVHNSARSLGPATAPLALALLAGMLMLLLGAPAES

[3] = target: T1, Alkaline phosphatase, tissue-nonspecific isozyme (Homo sapiens, UniProt P05186); assay: TNAP enzyme inhibition by screening hits, dose response, selectivity assay for mouse IAP inhibitor project, biochemical, human TNAP, uHTS hits (AID 488906)
T1 sequence (P05186 whole entry): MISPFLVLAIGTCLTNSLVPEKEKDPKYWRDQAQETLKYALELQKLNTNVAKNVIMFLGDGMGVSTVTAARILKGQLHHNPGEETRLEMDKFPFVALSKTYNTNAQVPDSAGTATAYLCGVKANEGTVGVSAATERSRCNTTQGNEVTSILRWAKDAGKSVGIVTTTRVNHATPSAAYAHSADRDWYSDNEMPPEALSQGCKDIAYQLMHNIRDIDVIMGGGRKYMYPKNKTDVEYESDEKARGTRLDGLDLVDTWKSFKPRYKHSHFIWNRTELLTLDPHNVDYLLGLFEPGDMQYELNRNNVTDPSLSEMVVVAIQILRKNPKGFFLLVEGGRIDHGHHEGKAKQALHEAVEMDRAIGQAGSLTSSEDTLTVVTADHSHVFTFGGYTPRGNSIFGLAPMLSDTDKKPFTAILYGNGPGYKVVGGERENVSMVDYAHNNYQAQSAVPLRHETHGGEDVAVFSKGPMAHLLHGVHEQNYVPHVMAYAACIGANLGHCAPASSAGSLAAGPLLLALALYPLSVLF

[4] = target: Intestinal-type alkaline phosphatase (Homo sapiens, UniProt P09923); assay: inhibition of human intestinal alkaline phosphatase – biochemical, dose response (AID 488876)
Sequence of Intestinal-type alkaline phosphatase (Homo sapiens, UniProt P09923) (P09923 whole entry): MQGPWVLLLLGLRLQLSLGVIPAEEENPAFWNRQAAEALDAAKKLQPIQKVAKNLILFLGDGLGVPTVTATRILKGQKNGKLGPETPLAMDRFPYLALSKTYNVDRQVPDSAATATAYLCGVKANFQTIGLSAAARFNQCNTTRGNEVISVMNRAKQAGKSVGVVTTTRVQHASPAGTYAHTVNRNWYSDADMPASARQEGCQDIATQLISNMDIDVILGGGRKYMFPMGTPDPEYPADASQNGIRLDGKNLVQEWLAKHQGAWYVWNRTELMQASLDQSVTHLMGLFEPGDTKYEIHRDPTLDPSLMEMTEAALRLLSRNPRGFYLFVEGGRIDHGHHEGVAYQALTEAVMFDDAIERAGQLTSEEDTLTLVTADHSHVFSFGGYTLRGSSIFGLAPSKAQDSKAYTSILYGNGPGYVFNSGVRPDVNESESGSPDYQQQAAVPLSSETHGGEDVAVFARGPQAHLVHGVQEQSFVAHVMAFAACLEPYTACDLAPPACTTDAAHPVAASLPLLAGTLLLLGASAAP

[5] = target: Sphingosine 1-phosphate receptor 1 (Homo sapiens, UniProt P21453); assay: Fluorescence-based counterscreen assay for S1P4 agonists: Cell-based dose response high throughput screening assay to identify agonists of the Sphingosine 1-Phosphate Receptor 1 (S1P1). [Related pubchem assays (depositor defined):AID1509, AID1523, AID1801, AID463107, AID463118, AID463119, AID463122, AID463123, AID463129, AID463225, AID504400, AID504460]
Sequence of Sphingosine 1-phosphate receptor 1 (P21453 whole entry): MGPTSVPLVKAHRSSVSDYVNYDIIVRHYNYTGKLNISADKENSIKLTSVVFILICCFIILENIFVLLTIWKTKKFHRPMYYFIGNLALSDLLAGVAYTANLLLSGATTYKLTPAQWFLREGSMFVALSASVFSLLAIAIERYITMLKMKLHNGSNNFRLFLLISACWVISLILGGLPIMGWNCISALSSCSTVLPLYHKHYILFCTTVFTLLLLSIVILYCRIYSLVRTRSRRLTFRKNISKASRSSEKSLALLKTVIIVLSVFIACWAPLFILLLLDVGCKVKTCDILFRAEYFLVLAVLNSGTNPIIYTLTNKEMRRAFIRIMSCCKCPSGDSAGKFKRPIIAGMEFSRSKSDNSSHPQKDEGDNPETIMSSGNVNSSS

[6] = target: T2, Sphingosine 1-phosphate receptor 4 (Homo sapiens, UniProt O95977); assay: Fluorescence dose response cell-based high throughput screening assay for agonists of the Sphingosine 1-Phosphate Receptor 4 (S1P4). [Related pubchem assays: 1509 (Primary screen.), 1523 (Confirmation screen in triplicates.)]
T2 sequence (O95977 whole entry): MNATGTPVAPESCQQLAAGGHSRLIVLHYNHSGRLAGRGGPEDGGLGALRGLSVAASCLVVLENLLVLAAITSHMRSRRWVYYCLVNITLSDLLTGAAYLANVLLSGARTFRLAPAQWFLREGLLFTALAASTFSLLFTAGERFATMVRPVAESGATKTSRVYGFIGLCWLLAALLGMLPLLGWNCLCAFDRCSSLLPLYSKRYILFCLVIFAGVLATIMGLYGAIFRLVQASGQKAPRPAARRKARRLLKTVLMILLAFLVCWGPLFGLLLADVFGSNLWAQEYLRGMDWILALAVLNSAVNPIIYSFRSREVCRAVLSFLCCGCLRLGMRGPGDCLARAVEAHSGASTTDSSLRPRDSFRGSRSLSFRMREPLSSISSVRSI

[7] = target: Metabotropic glutamate receptor 6 (Homo sapiens, UniProt O15303); assay: Modulation of the Metabotropic Glutamate Receptor mGluR4: Selectivity at mGluR6. [Related pubchem assays (depositor defined):AID2437, AID2807]
[8] = target: Metabotropic glutamate receptor 7 (Rattus norvegicus, UniProt P35400); assay: Modulation of the Metabotropic Glutamate Receptor mGluR4: Selectivity at mGluR7. [Related pubchem assays (depositor defined):AID2437, AID2807]
Sequence of Metabotropic glutamate receptor 7 (P35400 whole entry): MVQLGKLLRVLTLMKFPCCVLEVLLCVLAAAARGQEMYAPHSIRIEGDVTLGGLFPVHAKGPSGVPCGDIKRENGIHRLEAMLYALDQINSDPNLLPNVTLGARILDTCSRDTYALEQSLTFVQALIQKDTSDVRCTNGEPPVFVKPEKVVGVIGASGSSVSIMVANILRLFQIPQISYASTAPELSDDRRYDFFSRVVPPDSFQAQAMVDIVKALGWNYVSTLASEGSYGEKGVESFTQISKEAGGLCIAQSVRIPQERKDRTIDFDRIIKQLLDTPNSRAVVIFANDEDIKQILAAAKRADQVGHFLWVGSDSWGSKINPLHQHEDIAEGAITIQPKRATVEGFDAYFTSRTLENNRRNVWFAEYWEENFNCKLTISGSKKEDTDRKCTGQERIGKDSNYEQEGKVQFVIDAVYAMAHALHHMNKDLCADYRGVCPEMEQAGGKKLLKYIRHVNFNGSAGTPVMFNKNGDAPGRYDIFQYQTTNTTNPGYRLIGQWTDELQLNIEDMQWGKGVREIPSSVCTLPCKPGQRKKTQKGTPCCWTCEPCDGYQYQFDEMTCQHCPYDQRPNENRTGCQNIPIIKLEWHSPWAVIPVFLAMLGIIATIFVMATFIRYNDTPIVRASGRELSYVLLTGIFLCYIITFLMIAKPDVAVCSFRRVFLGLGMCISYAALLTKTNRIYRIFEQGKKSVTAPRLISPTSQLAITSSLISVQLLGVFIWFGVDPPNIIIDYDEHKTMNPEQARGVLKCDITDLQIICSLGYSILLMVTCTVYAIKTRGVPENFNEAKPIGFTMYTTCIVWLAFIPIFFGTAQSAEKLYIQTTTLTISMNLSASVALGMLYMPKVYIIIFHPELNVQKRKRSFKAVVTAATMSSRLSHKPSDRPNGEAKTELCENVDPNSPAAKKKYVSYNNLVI

[9] = target: T3, Metabotropic glutamate receptor 4 (Rattus norvegicus, UniProt P31423); assay: Modulation of the Metabotropic Glutamate Receptor mGluR4: Selectivity at mGluR4. [Related pubchem assays (depositor defined):AID2437, AID2807]
T3 sequence (P31423 whole entry): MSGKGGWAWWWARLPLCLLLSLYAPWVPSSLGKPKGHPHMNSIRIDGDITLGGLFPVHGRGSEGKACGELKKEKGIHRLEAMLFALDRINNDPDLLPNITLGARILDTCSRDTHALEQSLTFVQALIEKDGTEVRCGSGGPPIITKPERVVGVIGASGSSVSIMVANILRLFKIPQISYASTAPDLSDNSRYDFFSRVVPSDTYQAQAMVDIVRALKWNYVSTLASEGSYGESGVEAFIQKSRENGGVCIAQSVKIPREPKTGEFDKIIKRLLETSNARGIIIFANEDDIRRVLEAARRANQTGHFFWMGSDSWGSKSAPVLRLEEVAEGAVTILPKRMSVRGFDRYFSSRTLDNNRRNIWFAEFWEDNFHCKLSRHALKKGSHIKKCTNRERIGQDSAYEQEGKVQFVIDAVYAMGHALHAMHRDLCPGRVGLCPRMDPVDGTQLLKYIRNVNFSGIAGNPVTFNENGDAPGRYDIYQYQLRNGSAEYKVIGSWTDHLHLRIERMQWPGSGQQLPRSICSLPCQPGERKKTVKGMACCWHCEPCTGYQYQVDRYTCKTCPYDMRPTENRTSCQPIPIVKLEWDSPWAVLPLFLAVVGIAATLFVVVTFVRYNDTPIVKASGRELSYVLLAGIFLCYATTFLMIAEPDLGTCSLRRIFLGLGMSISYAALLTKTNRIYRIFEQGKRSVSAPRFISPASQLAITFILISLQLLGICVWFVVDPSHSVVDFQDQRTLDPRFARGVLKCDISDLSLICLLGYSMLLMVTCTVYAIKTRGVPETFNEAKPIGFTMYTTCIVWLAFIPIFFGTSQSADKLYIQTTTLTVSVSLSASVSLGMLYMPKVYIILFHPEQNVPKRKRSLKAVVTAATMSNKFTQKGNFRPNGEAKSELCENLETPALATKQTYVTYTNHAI

[10] = target: Metabotropic glutamate receptor 1 (Rattus norvegicus, UniProt P23385); assay: Modulation of the Metabotropic Glutamate Receptor mGluR4: Selectivity at mGluR1. [Related pubchem assays (depositor defined):AID2437, AID2807]
[11] = target: Metabotropic glutamate receptor 5 (Rattus norvegicus, UniProt P31424); assay: Modulation of the Metabotropic Glutamate Receptor mGluR4: Selectivity at mGluR5. [Related pubchem assays (depositor defined):AID2437, AID2807]
Sequence of Metabotropic glutamate receptor 5 (P31424 whole entry): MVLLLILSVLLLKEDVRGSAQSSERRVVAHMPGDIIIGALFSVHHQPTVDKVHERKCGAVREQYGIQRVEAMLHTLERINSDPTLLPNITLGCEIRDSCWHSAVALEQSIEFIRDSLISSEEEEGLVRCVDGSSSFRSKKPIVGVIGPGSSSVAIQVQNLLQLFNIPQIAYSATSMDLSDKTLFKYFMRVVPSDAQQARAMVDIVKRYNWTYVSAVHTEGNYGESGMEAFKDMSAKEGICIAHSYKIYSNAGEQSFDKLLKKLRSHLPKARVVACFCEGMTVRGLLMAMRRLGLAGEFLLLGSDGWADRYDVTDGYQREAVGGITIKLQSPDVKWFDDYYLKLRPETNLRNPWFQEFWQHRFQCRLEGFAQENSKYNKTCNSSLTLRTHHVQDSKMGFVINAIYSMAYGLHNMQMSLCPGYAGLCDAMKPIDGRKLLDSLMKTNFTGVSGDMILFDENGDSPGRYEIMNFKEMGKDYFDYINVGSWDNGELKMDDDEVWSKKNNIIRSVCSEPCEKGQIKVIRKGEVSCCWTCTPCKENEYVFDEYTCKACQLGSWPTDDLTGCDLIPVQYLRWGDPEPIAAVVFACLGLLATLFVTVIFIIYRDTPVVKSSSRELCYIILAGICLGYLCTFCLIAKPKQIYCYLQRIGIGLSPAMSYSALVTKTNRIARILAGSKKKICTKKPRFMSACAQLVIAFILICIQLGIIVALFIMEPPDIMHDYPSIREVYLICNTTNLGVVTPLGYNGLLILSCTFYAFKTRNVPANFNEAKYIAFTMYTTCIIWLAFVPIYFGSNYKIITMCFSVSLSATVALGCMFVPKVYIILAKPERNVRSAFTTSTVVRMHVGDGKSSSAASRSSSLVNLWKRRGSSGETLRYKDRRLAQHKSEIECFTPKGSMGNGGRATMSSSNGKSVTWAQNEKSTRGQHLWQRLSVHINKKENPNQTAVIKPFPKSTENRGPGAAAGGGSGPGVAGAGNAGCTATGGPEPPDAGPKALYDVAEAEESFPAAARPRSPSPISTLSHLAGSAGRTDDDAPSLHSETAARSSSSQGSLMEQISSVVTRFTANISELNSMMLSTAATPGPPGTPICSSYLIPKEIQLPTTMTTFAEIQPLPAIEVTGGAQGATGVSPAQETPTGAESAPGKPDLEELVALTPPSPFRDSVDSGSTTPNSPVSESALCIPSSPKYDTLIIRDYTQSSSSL

[12] = target: Metabotropic glutamate receptor 3 (Rattus norvegicus, UniProt P31422); assay: Modulation of the Metabotropic Glutamate Receptor mGluR4: Selectivity at mGluR3. [Related pubchem assays (depositor defined):AID2437, AID2807]
[13] = target: T3, Metabotropic glutamate receptor 4; assay: Modulation of the Metabotropic Glutamate Receptor mGluR4: Rat PAM Potency. [Related pubchem assays (depositor defined):AID2437, AID2807]
[14] = target: Metabotropic glutamate receptor 2 (Rattus norvegicus, UniProt P31421); assay: mGluR2 modulation, off-target check – cell-based, rat, selectivity assay for mGluR4 modulator project (AID 2188)
[15] = target: Metabotropic glutamate receptor 8 (Rattus norvegicus, UniProt P70579); assay: Modulation of the Metabotropic Glutamate Receptor mGluR4: Selectivity at mGluR8. [Related pubchem assays (depositor defined):AID2437, AID2807]

Structure (SMILES): Cc1ccc2[nH]c(=O)c(CN(CCC(C)C)C(=O)c3ccccn3)cc2c1
- EC50 [1]: 13100 nM (inactive)

Structure (SMILES): NS(=O)(=O)c1cccc(NC(=O)CSc2nnc(-c3ccncc3)n2C2CC2)c1
- IC50 [2]: 2340 nM (active)
- IC50 [3]: 17100 nM (active)
- IC50 [4]: 9420 nM (active)

Structure (SMILES): Cc1cc(C)nc(N/N=C/c2ccc(N3CCOCC3)cc2)n1
- EC50 [5]: > 49800 nM (inactive)
- EC50 [6]: > 49800 nM (not active)

Structure (SMILES): O=C(Nc1cccc(Cl)c1)c1ccccn1
- EC50 [7]: 1250 nM (active)
- Activity EC50 [8]: 163000 nM
- EC50 [9]: 597 nM (active)
- EC50 [10]: 1170 nM (inactive)
- EC50 [11]: 1240 nM (inactive)
- EC50 [12]: 811 nM (inactive)
- EC50 [13]: 295 nM (active)
- EC50 [14]: 1470 nM (inactive)
- EC50 [15]: 9140 nM (inactive)
